Measurements as given in ChEMBL document CHEMBL4804284.

What was measured:
Set-up in all cases: scale not given: the % may be the effect or the level left
[1] = molecular target: Ephrin type-A receptor 7 (Homo sapiens) (UniProt Q15375); test: Inhibition of DNA-tagged human EPHA7 assessed as percent of control at 50000 nM by qPCR analysis relative to control
[2] = system: Epidermal growth factor receptor (Homo sapiens), P00533 [UNDEFINED MUTATION]; test: Inhibition of DNA-tagged human EGFR S752-1759del mutant assessed as percent of control at 50000 nM by qPCR analysis relative to control
[3] = molecular target: Bone morphogenetic protein receptor type-1A (Homo sapiens) (UniProt P36894); test: Inhibition of DNA-tagged human BMPR1A assessed as percent of control at 50000 nM by qPCR analysis relative to control
[4] = molecular target: Dual specificity mitogen-activated protein kinase kinase 4 (Homo sapiens) (UniProt P45985); test: Inhibition of DNA-tagged human MEK4 assessed as percent of control at 50000 nM by qPCR analysis relative to control
[5] = molecular target: Tyrosine-protein kinase Yes (Homo sapiens) (UniProt P07947); test: Inhibition of DNA-tagged human YES assessed as percent of control at 50000 nM by qPCR analysis relative to control
[6] = molecular target: Uncharacterized serine/threonine-protein kinase SBK3 (Homo sapiens) (UniProt P0C264); test: Inhibition of DNA-tagged human SgK110 assessed as percent of control at 50000 nM by qPCR analysis relative to control
[7] = molecular target: Tyrosine-protein kinase HCK (Homo sapiens) (UniProt P08631); test: Inhibition of DNA-tagged human HCK assessed as percent of control at 50000 nM by qPCR analysis relative to control
[8] = system: Mast/stem cell growth factor receptor Kit (Homo sapiens), P10721 [V559D,V654A]; test: Inhibition of DNA-tagged human KIT V559D/V654A double mutant assessed as percent of control at 50000 nM by qPCR analysis relative to control
[9] = molecular target: Serine/threonine-protein kinase MRCK alpha (Homo sapiens) (UniProt Q5VT25); test: Inhibition of DNA-tagged human MRCKA assessed as percent of control at 50000 nM by qPCR analysis relative to control
[10] = molecular target: Mitogen-activated protein kinase 7 (Homo sapiens) (UniProt Q13164); test: Inhibition of DNA-tagged human ERK5 assessed as percent of control at 50000 nM by qPCR analysis relative to control
[11] = molecular target: Hormonally up-regulated neu tumor-associated kinase (Homo sapiens) (UniProt P57058); test: Inhibition of DNA-tagged human HUNK assessed as percent of control at 50000 nM by qPCR analysis relative to control
[12] = molecular target: Serine/threonine-protein kinase VRK2 (Homo sapiens) (UniProt Q86Y07); test: Inhibition of DNA-tagged human VRK2 assessed as percent of control at 50000 nM by qPCR analysis relative to control
[13] = molecular target: Homeodomain-interacting protein kinase 3 (Homo sapiens) (UniProt Q9H422); test: Inhibition of DNA-tagged human HIPK3 assessed as percent of control at 50000 nM by qPCR analysis relative to control
[14] = molecular target: Insulin receptor (Homo sapiens) (UniProt P06213); test: Inhibition of DNA-tagged human INSR assessed as percent of control at 50000 nM by qPCR analysis relative to control
[15] = molecular target: Calcium/calmodulin-dependent protein kinase type II subunit beta (Homo sapiens) (UniProt Q13554); test: Inhibition of DNA-tagged human CAMK2B assessed as percent of control at 50000 nM by qPCR analysis relative to control
[16] = molecular target: Tyrosine-protein kinase JAK1 (Homo sapiens) (UniProt P23458); test: Inhibition of DNA-tagged human JAK1 JH1 catalytic domain assessed as percent of control at 50000 nM by qPCR analysis relative to control
[17] = molecular target: Tyrosine-protein kinase ITK/TSK (Homo sapiens) (UniProt Q08881); test: Inhibition of DNA-tagged human ITK assessed as percent of control at 50000 nM by qPCR analysis relative to control
[18] = molecular target: Cyclin-dependent kinase-like 5 (Homo sapiens) (UniProt O76039); test: Inhibition of DNA-tagged human CDKL5 assessed as percent of control at 50000 nM by qPCR analysis relative to control
[19] = molecular target: SRSF protein kinase 1 (Homo sapiens) (UniProt Q96SB4); test: Inhibition of DNA-tagged human SRPK1 assessed as percent of control at 50000 nM by qPCR analysis relative to control
[20] = molecular target: Ribosomal protein S6 kinase beta-1 (Homo sapiens) (UniProt P23443); test: Inhibition of DNA-tagged human S6K1 assessed as percent of control at 50000 nM by qPCR analysis relative to control
[21] = molecular target: Tyrosine-protein kinase SYK (Homo sapiens) (UniProt P43405); test: Inhibition of DNA-tagged human SYK assessed as percent of control at 50000 nM by qPCR analysis relative to control
[22] = molecular target: Mitogen-activated protein kinase kinase kinase 9 (Homo sapiens) (UniProt P80192); test: Inhibition of DNA-tagged human MLK1 assessed as percent of control at 50000 nM by qPCR analysis relative to control
[23] = molecular target: Receptor tyrosine-protein kinase erbB-4 (Homo sapiens) (UniProt Q15303); test: Inhibition of DNA-tagged human ERBB4 assessed as percent of control at 50000 nM by qPCR analysis relative to control
[24] = molecular target: Phosphorylase b kinase gamma catalytic chain, liver/testis isoform (Homo sapiens) (UniProt P15735); test: Inhibition of DNA-tagged human PHKG2 assessed as percent of control at 50000 nM by qPCR analysis relative to control
[25] = molecular target: Tyrosine-protein kinase Lck (Homo sapiens) (UniProt P06239); test: Inhibition of DNA-tagged human LCK assessed as percent of control at 50000 nM by qPCR analysis relative to control
[26] = system: Tyrosine-protein kinase ABL1 (Homo sapiens), P00519 [T315I]; test: Inhibition of DNA-tagged phosphorylated human ABL1 T315I mutant assessed as percent of control at 50000 nM by qPCR analysis relative to control
[27] = molecular target: Serine/threonine-protein kinase 38-like (Homo sapiens) (UniProt Q9Y2H1); test: Inhibition of DNA-tagged human NDR2 assessed as percent of control at 50000 nM by qPCR analysis relative to control
[28] = molecular target: Mitogen-activated protein kinase 1 (Homo sapiens) (UniProt P28482); test: Inhibition of DNA-tagged human ERK2 assessed as percent of control at 50000 nM by qPCR analysis relative to control
[29] = molecular target: Casein kinase II subunit alpha (Homo sapiens) (UniProt P68400); test: Inhibition of DNA-tagged human CSNK2A1 assessed as percent of control at 50000 nM by qPCR analysis relative to control
[30] = molecular target: Serine/threonine-protein kinase 26 (Homo sapiens) (UniProt Q9P289); test: Inhibition of DNA-tagged human MST4 assessed as percent of control at 50000 nM by qPCR analysis relative to control
Sequence of Serine/threonine-protein kinase 26 (Homo sapiens) (Q9P289 2-416 limits assumed): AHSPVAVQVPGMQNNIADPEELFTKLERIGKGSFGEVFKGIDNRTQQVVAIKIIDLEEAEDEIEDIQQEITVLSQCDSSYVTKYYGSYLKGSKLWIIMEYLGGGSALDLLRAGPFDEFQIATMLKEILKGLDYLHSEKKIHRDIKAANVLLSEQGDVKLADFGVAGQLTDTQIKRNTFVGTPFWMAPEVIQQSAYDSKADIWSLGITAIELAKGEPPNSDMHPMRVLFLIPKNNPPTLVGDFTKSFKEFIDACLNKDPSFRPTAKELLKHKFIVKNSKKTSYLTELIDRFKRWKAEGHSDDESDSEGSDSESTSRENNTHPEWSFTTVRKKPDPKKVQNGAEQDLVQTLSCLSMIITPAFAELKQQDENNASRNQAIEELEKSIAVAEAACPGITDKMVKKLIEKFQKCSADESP

Sequence of Bone morphogenetic protein receptor type-1A (Homo sapiens) (P36894 whole entry): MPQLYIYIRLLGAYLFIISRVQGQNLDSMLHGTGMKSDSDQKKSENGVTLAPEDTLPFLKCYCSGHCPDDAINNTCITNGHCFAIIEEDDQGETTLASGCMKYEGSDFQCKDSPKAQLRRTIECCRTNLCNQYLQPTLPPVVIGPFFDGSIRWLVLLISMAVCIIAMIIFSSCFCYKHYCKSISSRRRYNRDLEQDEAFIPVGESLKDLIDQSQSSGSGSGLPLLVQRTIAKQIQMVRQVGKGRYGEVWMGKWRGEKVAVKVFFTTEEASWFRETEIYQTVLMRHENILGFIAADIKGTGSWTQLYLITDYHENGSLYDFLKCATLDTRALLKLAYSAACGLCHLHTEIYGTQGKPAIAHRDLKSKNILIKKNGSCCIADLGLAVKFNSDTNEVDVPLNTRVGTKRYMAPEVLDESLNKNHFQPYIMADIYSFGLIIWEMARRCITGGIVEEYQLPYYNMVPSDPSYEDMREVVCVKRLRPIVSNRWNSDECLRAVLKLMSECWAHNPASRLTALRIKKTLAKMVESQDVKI
Sequence of Calcium/calmodulin-dependent protein kinase type II subunit beta (Homo sapiens) (Q13554 whole entry, the tested form may be a part): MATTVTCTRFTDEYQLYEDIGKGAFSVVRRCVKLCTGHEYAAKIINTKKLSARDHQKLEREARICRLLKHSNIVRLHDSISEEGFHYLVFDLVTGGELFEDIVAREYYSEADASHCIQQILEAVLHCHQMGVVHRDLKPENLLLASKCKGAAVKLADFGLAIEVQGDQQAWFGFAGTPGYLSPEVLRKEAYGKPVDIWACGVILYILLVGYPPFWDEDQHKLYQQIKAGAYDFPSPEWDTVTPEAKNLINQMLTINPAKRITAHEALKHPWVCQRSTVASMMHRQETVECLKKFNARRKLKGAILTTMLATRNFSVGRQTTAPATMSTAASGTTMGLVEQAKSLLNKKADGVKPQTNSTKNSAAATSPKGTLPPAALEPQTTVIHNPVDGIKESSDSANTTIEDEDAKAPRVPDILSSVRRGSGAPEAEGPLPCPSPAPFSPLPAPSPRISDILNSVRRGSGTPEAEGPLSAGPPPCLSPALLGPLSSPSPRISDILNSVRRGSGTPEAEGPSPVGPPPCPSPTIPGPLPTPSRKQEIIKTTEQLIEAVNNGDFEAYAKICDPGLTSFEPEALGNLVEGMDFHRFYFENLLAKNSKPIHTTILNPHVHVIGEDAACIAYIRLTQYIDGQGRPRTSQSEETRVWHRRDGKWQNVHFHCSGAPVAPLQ
Sequence of Insulin receptor (Homo sapiens) (P06213 28-758 limits assumed): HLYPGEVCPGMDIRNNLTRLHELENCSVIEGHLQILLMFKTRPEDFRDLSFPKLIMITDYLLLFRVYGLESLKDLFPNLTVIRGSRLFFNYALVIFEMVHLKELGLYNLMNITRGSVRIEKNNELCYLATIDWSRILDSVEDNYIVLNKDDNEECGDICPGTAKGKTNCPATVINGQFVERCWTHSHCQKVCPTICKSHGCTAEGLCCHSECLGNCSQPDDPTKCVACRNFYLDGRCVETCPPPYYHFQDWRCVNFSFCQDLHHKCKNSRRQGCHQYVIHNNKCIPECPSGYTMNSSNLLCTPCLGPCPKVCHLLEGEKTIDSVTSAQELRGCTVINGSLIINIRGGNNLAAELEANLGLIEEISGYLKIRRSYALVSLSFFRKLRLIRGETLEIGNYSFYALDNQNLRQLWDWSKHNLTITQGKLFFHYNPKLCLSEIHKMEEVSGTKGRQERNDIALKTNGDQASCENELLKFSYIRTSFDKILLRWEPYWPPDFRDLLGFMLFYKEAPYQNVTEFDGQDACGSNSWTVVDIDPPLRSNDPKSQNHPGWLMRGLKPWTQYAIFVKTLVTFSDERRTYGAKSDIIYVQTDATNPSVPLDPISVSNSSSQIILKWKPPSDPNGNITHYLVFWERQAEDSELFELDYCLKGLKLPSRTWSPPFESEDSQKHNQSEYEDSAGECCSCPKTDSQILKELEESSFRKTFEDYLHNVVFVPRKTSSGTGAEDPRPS
Sequence of Insulin receptor (Homo sapiens) (P06213 763-1382 limits assumed): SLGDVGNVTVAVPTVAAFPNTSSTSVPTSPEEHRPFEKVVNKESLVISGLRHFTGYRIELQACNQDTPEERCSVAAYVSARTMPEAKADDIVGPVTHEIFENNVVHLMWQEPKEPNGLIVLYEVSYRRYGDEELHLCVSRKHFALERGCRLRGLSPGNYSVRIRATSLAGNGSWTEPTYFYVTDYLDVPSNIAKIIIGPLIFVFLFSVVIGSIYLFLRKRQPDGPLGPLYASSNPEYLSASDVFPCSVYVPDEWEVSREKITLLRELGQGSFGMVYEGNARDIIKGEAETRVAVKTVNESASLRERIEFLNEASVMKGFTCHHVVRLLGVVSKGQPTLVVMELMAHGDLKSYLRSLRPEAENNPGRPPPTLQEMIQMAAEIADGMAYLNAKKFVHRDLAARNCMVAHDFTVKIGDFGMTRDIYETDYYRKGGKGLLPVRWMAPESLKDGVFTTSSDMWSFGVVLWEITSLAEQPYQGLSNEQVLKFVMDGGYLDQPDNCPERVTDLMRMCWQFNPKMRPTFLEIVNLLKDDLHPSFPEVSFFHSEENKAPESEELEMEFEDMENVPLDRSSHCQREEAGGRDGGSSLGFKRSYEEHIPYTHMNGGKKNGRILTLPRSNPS
Sequence of Tyrosine-protein kinase JAK1 (Homo sapiens) (P23458 whole entry, the tested form may be a part): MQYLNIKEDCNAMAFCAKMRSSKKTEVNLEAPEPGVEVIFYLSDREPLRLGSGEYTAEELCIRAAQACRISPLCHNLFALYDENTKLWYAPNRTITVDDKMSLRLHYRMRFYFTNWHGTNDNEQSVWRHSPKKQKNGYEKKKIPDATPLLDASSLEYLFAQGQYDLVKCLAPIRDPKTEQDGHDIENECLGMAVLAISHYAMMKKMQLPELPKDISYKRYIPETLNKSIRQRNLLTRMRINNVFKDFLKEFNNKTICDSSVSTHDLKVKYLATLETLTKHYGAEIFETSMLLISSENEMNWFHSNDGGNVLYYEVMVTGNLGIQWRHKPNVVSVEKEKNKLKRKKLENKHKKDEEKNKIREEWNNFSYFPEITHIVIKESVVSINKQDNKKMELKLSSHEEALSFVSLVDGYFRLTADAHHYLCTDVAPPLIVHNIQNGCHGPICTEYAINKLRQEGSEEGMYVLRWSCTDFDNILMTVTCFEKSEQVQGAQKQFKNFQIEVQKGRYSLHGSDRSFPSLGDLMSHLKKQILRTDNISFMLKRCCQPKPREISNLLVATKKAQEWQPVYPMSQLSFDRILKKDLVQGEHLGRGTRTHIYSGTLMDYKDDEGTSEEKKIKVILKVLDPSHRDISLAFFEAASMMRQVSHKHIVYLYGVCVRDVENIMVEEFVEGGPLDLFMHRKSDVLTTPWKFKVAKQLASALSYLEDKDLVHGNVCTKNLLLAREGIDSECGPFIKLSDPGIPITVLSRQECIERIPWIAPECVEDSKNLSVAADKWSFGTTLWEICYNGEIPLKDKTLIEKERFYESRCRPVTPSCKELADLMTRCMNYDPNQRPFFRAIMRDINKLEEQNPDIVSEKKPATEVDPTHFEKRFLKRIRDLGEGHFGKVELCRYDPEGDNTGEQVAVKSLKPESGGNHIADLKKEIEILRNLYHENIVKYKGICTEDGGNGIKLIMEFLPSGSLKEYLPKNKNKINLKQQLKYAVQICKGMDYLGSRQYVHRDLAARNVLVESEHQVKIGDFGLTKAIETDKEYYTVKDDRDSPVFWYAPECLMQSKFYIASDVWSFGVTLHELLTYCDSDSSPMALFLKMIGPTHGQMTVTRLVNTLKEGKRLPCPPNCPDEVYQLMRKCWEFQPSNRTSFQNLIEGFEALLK
Sequence of Tyrosine-protein kinase HCK (Homo sapiens) (P08631 2-526 limits assumed): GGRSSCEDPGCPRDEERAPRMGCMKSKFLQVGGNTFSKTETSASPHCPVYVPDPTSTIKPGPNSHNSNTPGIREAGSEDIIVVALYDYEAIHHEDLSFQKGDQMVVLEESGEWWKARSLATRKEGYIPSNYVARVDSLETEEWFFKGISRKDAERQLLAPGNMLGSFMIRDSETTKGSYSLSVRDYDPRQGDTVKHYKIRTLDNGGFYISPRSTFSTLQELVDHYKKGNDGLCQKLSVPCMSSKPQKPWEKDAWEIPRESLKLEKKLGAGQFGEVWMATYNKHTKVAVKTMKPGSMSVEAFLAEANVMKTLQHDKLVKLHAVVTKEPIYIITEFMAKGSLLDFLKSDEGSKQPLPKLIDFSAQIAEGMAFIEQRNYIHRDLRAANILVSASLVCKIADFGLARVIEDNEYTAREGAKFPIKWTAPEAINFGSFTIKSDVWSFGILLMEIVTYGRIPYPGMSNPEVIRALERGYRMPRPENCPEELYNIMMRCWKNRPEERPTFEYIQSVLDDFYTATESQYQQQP
Sequence of Dual specificity mitogen-activated protein kinase kinase 4 (Homo sapiens) (P45985 whole entry): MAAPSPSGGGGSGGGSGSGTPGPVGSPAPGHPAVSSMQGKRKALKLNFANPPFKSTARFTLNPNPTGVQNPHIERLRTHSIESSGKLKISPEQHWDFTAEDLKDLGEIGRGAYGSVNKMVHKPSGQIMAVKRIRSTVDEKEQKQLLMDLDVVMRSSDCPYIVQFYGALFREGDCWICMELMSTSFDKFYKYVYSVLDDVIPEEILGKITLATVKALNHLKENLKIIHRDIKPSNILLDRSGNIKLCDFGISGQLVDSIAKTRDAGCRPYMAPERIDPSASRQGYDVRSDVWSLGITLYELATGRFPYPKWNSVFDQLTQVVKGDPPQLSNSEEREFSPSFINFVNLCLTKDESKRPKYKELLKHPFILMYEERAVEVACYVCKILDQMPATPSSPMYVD

Molecule `CN1C(=O)/C(=C2/C(=O)Nc3ccccc32)c2ccccc21` has an Activity [1] of 100%, an Activity [2] of 88% and an Activity [3] of 100%. It also gave an Activity [4] of 100%, an Activity [5] of 86% and an Activity [6] of 100%. The Activity [7] was 100%, the Activity [8] was 100% and the Activity [9] was 92%. The Activity [10] was 97%, the Activity [11] was 98% and the Activity [12] was 79%. It also gave an Activity [13] of 80%, an Activity [14] of 91% and an Activity [15] of 86%. The Activity [16] was 94%, the Activity [17] was 78% and the Activity [18] was 91%. The Activity [19] was 100%, the Activity [20] was 85% and the Activity [21] was 85%. The Activity [22] was 100%, the Activity [23] was 88% and the Activity [24] was 100%. The Activity [25] was 96%, the Activity [26] was 98% and the Activity [27] was 100%. For the same molecule, the Activity [28] was 100%, the Activity [29] was 79% and the Activity [30] was 100%.
